The values that follow come from PubChem BioAssay (NCI).

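Values below derive from 48-hour exposures of cells grown in 96-well plates, with endpoints linearly interpolated between the two concentrations bracketing the appropriate inhibition level. TGI: total growth inhibition.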

Common to all, as to test: NCI-60 cell line screen, 48 h
In experiment [1] the test system is SK-MEL-2 melanoma.
The subject of experiment [2] is RPMI-8226 leukemia.
For experiment [3], the system named is NCI-H23 lung.
In experiment [4] the test system is 786-0 renal.
Experiment [5] relates to MDA-MB-231 breast.
The test system of experiment [6] is IGROV1 ovarian.
Experiment [7] has as its system EKVX NSCLC.
Experiment [8] deals with CCRF-CEM leukemia.
Experiment [9] relates to MDA-N.
The test system of experiment [10] is T-47D breast.
Experiment [11] relates to BT-549 breast.

For the compound `CC(C)(C)[Si](C)(C)OCC1OC(n2ccc(=O)[nH]c2=O)C(O[Si](C)(C)C(C)(C)C)/C1=C/C#N` (configuration not stated), the TGI in experiment [1] is 42.4 µM; in experiment [2] it was more than 100 µM; in experiment [3] it was more than 100 µM; in experiment [4] it was more than 100 µM; in experiment [5], more than 83.5 µM; in experiment [6], more than 100 µM. Moreover, the TGI is more than 100 µM in [7]; more than 100 µM in experiment [8]; more than 85.7 µM in experiment [9]; more than 100 µM in experiment [10]; more than 100 µM in experiment [11].

For the compound `COC(=O)C(Cc1ccc2c(c1)CCC2)Cc1ccc2c(c1)CCC2`, the TGI in [1], in experiment [2], in [3], in [4], in experiment [5] and in experiment [6] was more than 100 µM throughout. Also, the TGI in experiment [7], in experiment [8], in experiment [9], in experiment [10] and in experiment [11] was more than 100 µM in each case.

Consider `O=C(O)CCNc1ncnc2nc[nH]c12`, for which the TGI in [1], in experiment [2], in experiment [3], in [4], in experiment [5] and in experiment [6] was more than 100 µM throughout. In addition, the TGI in [7], in [8], in [9], in experiment [10] and in [11] was more than 100 µM throughout.

`CC(C)c1cc2c(c(O)c1O)[C@@]1(C(=O)O)CCCC(C)(C)[C@@H]1CC2`: the TGI in experiment [1] was 41.6 µM; in [2], 30.3 µM; in experiment [3] it was 46.9 µM; in experiment [4], more than 100 µM; in experiment [5], 86.3 µM; in [6], 36.9 µM. In addition, the TGI in experiment [7] is 30.8 µM; in [8], 42.3 µM; in experiment [9], more than 100 µM; in experiment [10] it was 55 µM; in experiment [11], 28.7 µM.

With `O=C(/C=C/c1ccccc1)Oc1ccc(C(=O)/C=C/c2ccccc2)cc1`, the TGI in experiment [1] was more than 66.1 µM; in experiment [2] it was 15.4 µM; in experiment [3], 22.4 µM; in [4], 13.7 µM; in experiment [5], 23 µM; in experiment [6] it was 17.9 µM. Further, the TGI is 22 µM in [7]; 10.9 µM in experiment [8]; 12.6 µM in [9]; 15.6 µM in experiment [10]; 17.7 µM in experiment [11].

As to `CC(=NNC(=S)Nc1ccccc1)c1cccc(C(C)=NNC(=S)Nc2ccccc2)n1`, the TGI was more than 100 µM in experiment [1]; more than 31.4 µM in experiment [2]; more than 100 µM in [3]; 35.4 µM in [4]; more than 100 µM in [5]; more than 50.2 µM in [6]. The TGI in [7], in experiment [8], in experiment [9], in [10] and in [11] was more than 100 µM throughout.

In the case of `CN1CCOC1c1ccccc1O` (configuration not stated), the TGI in [1], in [2], in experiment [3], in experiment [4], in [5] and in experiment [6] was more than 100 µM in each case. Moreover, the TGI in experiment [7], in [8], in [9], in experiment [10] and in experiment [11] was more than 100 µM in each case.

On to `CC1=CCC([C@@](C)(O)CCCC(C)(C)N=C=S)CC1` (some centres not stated), for which the TGI is 33.3 µM in [1]; 67.3 µM in experiment [2]; 38.5 µM in experiment [3]; 31.6 µM in experiment [4]; 36.7 µM in experiment [5]; 40.3 µM in [6]. Further, the TGI in experiment [7] amounted to 32.5 µM; in experiment [8] it was 48.9 µM; in experiment [9], 32.4 µM; in experiment [10], 44.2 µM; in experiment [11], 33.5 µM.

As for `COc1ccc(N2C(=O)CC(=O)N(NC(=O)C(C)Oc3ccccc3C)C2=S)cc1` (configuration not stated), the TGI in experiment [1], in experiment [2], in experiment [3], in [4], in experiment [5] and in experiment [6] was more than 100 µM throughout. Besides, the TGI in experiment [7], in experiment [8], in experiment [9], in experiment [10] and in [11] was more than 100 µM throughout.

Take `Cc1ccc(C2=CC(=O)OC(C[P+](c3ccccc3)(c3ccccc3)c3ccccc3)(c3ccccc3)O2)cc1` (configuration not stated): the TGI in [1] came to 29.2 µM; in [2], 46.1 µM; in [3], 27.2 µM; in experiment [4], 35.7 µM; in experiment [5], 82.3 µM; in experiment [6], 27.4 µM. For the same compound, the TGI came to 30 µM in experiment [7]; 99.4 µM in [8]; 29.2 µM in experiment [9]; 41.1 µM in experiment [10]; 49.2 µM in experiment [11].

Consider `C=CCc1cc(-c2nc(=S)[nH][nH]2)ccc1N=NNc1ccc(C(=O)O)cc1`, for which the TGI in experiment [1], in [2], in experiment [3], in experiment [4], in experiment [5] and in experiment [6] was more than 100 µM each time. For the same compound, the TGI in [7] was more than 100 µM; in experiment [8], more than 100 µM; in experiment [9], more than 100 µM; in experiment [10] it was 70.2 µM; in experiment [11], 73.8 µM.

Regarding `Cc1c2cc[n+](C)c(C)c2cc2c1[nH]c1ccccc12`, the TGI in experiment [1] was 30.5 µM; in experiment [2], 73.5 µM; in [3], 16.3 µM; in experiment [4], more than 39.5 µM; in [5] it was more than 36.3 µM; in experiment [6], more than 100 µM. The TGI in experiment [7] is 42.7 µM; in [8], 75.3 µM; in [9], more than 93.8 µM; in experiment [10], 10.4 µM; in [11] it was 18.9 µM.
